The results in this text go back to publication PMC9920598, “Impact of Starch Binding Domain Fusion on Activities and Starch Product Structure of 4-α-Glucanotransferase” (Molecules, 2023).

Experiment [1] concerns T1, SBDGA-TuαGT.
T1 construct: gene malQ; E. coli; 69,562 Da; with Glucoamylase (Aspergillus niger), C-terminal CBM20 domain SBDGA
As to the kind of experiment: glucose release (GOPOD), Michaelis-Menten fit. The format is biochemical, Thermoproteus uzoniensis. The note with it: disproportionation (maltotriose donor and acceptor); 70 °C, pH 7.0, 50 mM Hepes, 150 mM NaCl; 10 nM enzyme; read-out: SBDGA-TuaGT. From the text: glucose release (GOPOD), Michaelis-Menten fit on SBDGA-TuαGT

Experiment [2] deals with T2, SBDSt1-TuαGT.
T2 construct: gene malQ; E. coli; 68,272 Da; with 4-alpha-glucanotransferase DPE2 (Solanum tuberosum), first CBM20 domain SBDSt1
Nature of the experiment: glucose release (GOPOD), Michaelis-Menten fit. The format is biochemical, Thermoproteus uzoniensis. The note with it: disproportionation (maltotriose donor and acceptor); 70 °C, pH 7.0, 50 mM Hepes, 150 mM NaCl; 10 nM enzyme; read-out: SBDSt1-TuaGT. The text has this: glucose release (GOPOD), Michaelis-Menten fit on SBDSt1-TuαGT

`OC[C@H]1O[C@H](O[C@H]2[C@H](O)[C@@H](O)[C@@H](O[C@H]3[C@H](O)[C@@H](O)C(O)O[C@@H]3CO)O[C@@H]2CO)[C@H](O)[C@@H](O)[C@@H]1O` (some centres unmarked) [maltotriose]: the Km in experiment [1] stood at 1.4 ± 0.1 µM; in experiment [2], 3.5 ± 0.2 µM.
